# Tests used:
# PCTK2 = molecular target: T1, PCTK2 (Homo sapiens, UniProt Q00537); assay: KinomeScan; assay type: binding; details: read-out: % control
# T1 construct: purchased DiscoveRx KINOMEscan
# CDC2L2 = molecular target: T2, CDC2L2 (Homo sapiens, UniProt Q9UQ88); assay: KinomeScan; assay type: binding; details: read-out: % control
# T2 construct: purchased DiscoveRx KINOMEscan
# BUB1 = molecular target: T3, BUB1 (Homo sapiens, UniProt O43683); assay: KinomeScan; assay type: binding; details: read-out: % control
# T3 construct: purchased DiscoveRx KINOMEscan
# CDKL1 = molecular target: T4, CDKL1 (Homo sapiens, UniProt Q00532); assay: KinomeScan; assay type: binding; details: read-out: % control
# T4 construct: purchased DiscoveRx KINOMEscan
# SNRK = molecular target: T5, SNRK (Homo sapiens, UniProt Q9NRH2); assay: KinomeScan; assay type: binding; details: read-out: % control
# T5 construct: purchased DiscoveRx KINOMEscan
# EPHB6 = molecular target: T6, EPHB6 (Homo sapiens, UniProt O15197); assay: KinomeScan; assay type: binding; details: read-out: % control
# T6 construct: purchased DiscoveRx KINOMEscan
# PLK4 = molecular target: T7, PLK4 (Homo sapiens, UniProt O00444); assay: KinomeScan; assay type: binding; details: read-out: % control
# T7 construct: purchased DiscoveRx KINOMEscan
# NEK10 = molecular target: T8, NEK10 (Homo sapiens, UniProt Q6ZWH5); assay: KinomeScan; assay type: binding; details: read-out: % control
# T8 construct: purchased DiscoveRx KINOMEscan
# PLK1 = molecular target: T9, PLK1 (Homo sapiens, UniProt P53350); assay: KinomeScan; assay type: binding; details: read-out: % control
# T9 construct: purchased DiscoveRx KINOMEscan
# EGFR(L747-T751del,Sins) = assay: KinomeScan; assay type: binding; details: 1μM
# KIT(D816V) = molecular target: T10, KIT(D816V) (Homo sapiens, UniProt P10721, D816V); assay: KinomeScan; assay type: binding; details: read-out: % control
# T10 construct: purchased DiscoveRx KINOMEscan
# DCAMKL1 = molecular target: T11, DCAMKL1 (Homo sapiens, UniProt O15075); assay: KinomeScan; assay type: binding; details: read-out: % control
# T11 construct: purchased DiscoveRx KINOMEscan
# BaF3-TEL-EGFR-C797S = assay: Anti-proliferation, BaF3 isogenic cell lines (CellTiter-Glo); assay type: cell-based; details: Mus musculus, 72 hours, triplet testing
# EPHB2 = molecular target: T12, EPHB2 (Homo sapiens, UniProt P29323); assay: KinomeScan; assay type: binding; details: read-out: % control
# T12 construct: purchased DiscoveRx KINOMEscan
# p38-gamma = molecular target: T13, p38-gamma (Homo sapiens, UniProt P53778); assay: KinomeScan; assay type: binding; details: read-out: % control
# T13 construct: purchased DiscoveRx KINOMEscan
# CSNK1G3 = molecular target: T14, CSNK1G3 (Homo sapiens, UniProt Q9Y6M4); assay: KinomeScan; assay type: binding; details: read-out: % control
# T14 construct: purchased DiscoveRx KINOMEscan
# LRRK2 = molecular target: T15, LRRK2 (Homo sapiens, UniProt Q5S007); assay: KinomeScan; assay type: binding; details: read-out: % control
# T15 construct: purchased DiscoveRx KINOMEscan
# VPS34 = molecular target: T16, VPS34 (Homo sapiens, UniProt Q8NEB9); assay: KinomeScan; assay type: binding; details: read-out: % control
# T16 construct: purchased DiscoveRx KINOMEscan
# PC9 tumor xenografts = assay: PC9 cell inoculated xenograft mouse model; assay type: in vivo, mice; details: 21-day treatment
# Protocol: Figure 5 Anti-tumor efficacy of CHMFL-EGFR-26 in PC9 cell inoculated xenograft mouse mode Female nu/nu mice bearing established PC9 tumor xenografts were treated with CHMFL-EGFR-26 at 25.0 and 50.0 mg/kg/d, or vehicle. Daily oral administration was initiated when PC9 tumors had reached a size of 200 to 400 mm^3. Each group contained 7 or 8 animals. Data, mean ± SEM. A. Body weight and B. Tumor size measurements from PC9 xenograft mice after CHMFL-EGFR-26 administration. Initial body weight and tumor size were set as 100%. C. Representative photographs of tumors in each group after 25.0 or 50.0 mg/kg/d CHMFL-EGFR-26 or vehicle treatment. D. Comparison of the final tumor weight in each group after 21-day treatment period. Numbers in columns indicate the mean tumor weight in each group. E. Representative micrographs of hematoxylin and eosin (HE), Ki-67, and TUNEL staining of tumor tissues with CHMFL-EGFR-26 treatment compared to the vehicle-treated group. […]
# Five-week old female nu/nu mice were purchased from the Shanghai Experimental Center, Chinese Science Academy (Shanghai, China). […] Body weight and tumor growth was measured daily after CHMFL-EGFR-26 treatment. Tumor volumes were calculated as follows: tumor volume (mm^3)= [(W^2 × L)/2] in which width (W) is defined as the smaller of the two measurements and length (L) is defined as the larger of the two measurements.
# MEK3 = molecular target: T17, MEK3 (Homo sapiens, UniProt P46734); assay: KinomeScan; assay type: binding; details: read-out: % control
# T17 construct: purchased DiscoveRx KINOMEscan
# WEE1 = molecular target: T18, WEE1 (Homo sapiens, UniProt P30291); assay: KinomeScan; assay type: binding; details: read-out: % control
# T18 construct: purchased DiscoveRx KINOMEscan
# CHEK1 = molecular target: T19, CHEK1 (Homo sapiens, UniProt O14757); assay: KinomeScan; assay type: binding; details: read-out: % control
# T19 construct: purchased DiscoveRx KINOMEscan
# PIK3CA(M1043I) = molecular target: T20, PIK3CA(M1043I) (Homo sapiens, UniProt P42336, M1043I); assay: KinomeScan; assay type: binding; details: read-out: % control
# T20 construct: purchased DiscoveRx KINOMEscan
# INSRR = molecular target: T21, INSRR (Homo sapiens, UniProt P14616); assay: KinomeScan; assay type: binding; details: read-out: % control
# T21 construct: purchased DiscoveRx KINOMEscan
# ACVR2A = molecular target: T22, ACVR2A (Homo sapiens, UniProt P27037); assay: KinomeScan; assay type: binding; details: read-out: % control
# T22 construct: purchased DiscoveRx KINOMEscan
# PCTK3 = molecular target: T23, PCTK3 (Homo sapiens, UniProt Q07002); assay: KinomeScan; assay type: binding; details: read-out: % control
# T23 construct: purchased DiscoveRx KINOMEscan
# [1] = molecular target: T24, JAK1(JH1domain-catalytic) (Homo sapiens, UniProt P23458); assay: KinomeScan; assay type: binding; details: read-out: % control
# T24 construct: JAK1(JH1domain-catalytic); purchased DiscoveRx KINOMEscan
# MYLK4 = molecular target: T25, MYLK4 (Homo sapiens, UniProt Q86YV6); assay: KinomeScan; assay type: binding; details: read-out: % control
# T25 construct: purchased DiscoveRx KINOMEscan
# T12 sequence (P29323 19-1055): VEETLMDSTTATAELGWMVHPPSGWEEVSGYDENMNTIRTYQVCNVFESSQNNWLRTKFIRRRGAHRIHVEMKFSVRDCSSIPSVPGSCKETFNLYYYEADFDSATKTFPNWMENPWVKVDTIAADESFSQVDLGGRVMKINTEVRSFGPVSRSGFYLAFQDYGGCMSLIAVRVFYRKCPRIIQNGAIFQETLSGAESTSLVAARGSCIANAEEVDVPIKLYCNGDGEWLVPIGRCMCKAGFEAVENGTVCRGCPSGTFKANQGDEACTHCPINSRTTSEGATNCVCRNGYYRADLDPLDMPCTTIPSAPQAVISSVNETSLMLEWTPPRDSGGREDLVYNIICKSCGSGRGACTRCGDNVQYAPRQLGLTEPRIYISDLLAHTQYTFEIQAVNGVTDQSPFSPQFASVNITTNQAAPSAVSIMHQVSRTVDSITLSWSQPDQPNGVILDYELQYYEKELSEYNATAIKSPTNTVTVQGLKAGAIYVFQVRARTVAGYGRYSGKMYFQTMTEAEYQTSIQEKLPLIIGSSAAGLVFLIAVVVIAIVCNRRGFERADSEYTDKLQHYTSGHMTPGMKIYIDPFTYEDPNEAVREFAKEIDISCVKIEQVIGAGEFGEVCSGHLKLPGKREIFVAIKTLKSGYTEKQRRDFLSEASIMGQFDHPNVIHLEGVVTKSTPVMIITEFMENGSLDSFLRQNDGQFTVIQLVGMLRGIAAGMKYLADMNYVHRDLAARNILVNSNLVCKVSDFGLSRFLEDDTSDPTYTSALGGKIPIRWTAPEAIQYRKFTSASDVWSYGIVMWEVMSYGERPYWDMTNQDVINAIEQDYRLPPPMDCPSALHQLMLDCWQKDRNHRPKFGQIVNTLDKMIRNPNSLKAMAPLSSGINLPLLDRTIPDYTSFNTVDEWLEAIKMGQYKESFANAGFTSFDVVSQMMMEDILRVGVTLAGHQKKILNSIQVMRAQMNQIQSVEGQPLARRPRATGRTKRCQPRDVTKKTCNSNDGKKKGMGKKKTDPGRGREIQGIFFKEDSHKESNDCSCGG
# T16 sequence (Q8NEB9 whole entry): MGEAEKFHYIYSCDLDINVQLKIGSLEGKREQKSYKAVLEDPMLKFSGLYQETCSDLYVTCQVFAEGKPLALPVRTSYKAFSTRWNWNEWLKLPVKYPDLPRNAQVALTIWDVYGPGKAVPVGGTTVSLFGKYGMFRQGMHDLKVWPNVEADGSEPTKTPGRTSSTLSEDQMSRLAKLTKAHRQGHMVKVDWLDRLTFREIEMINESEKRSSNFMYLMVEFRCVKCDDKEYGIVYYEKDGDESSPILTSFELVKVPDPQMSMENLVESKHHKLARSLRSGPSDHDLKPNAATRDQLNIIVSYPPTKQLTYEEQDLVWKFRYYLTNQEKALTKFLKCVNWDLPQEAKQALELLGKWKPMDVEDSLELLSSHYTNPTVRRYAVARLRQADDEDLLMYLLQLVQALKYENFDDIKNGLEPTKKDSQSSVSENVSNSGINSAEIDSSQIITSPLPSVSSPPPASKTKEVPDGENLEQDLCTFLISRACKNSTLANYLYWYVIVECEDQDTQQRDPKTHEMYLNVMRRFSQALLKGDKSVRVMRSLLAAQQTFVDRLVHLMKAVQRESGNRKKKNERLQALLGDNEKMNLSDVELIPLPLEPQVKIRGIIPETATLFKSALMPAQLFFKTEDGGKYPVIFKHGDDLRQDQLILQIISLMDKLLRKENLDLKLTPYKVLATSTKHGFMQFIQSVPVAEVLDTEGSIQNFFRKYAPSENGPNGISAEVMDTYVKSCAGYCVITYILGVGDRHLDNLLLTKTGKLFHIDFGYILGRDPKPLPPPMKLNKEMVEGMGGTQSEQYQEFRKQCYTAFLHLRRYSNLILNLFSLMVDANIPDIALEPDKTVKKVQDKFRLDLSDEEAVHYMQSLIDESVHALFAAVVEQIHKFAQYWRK
# T8 sequence (Q6ZWH5 whole entry): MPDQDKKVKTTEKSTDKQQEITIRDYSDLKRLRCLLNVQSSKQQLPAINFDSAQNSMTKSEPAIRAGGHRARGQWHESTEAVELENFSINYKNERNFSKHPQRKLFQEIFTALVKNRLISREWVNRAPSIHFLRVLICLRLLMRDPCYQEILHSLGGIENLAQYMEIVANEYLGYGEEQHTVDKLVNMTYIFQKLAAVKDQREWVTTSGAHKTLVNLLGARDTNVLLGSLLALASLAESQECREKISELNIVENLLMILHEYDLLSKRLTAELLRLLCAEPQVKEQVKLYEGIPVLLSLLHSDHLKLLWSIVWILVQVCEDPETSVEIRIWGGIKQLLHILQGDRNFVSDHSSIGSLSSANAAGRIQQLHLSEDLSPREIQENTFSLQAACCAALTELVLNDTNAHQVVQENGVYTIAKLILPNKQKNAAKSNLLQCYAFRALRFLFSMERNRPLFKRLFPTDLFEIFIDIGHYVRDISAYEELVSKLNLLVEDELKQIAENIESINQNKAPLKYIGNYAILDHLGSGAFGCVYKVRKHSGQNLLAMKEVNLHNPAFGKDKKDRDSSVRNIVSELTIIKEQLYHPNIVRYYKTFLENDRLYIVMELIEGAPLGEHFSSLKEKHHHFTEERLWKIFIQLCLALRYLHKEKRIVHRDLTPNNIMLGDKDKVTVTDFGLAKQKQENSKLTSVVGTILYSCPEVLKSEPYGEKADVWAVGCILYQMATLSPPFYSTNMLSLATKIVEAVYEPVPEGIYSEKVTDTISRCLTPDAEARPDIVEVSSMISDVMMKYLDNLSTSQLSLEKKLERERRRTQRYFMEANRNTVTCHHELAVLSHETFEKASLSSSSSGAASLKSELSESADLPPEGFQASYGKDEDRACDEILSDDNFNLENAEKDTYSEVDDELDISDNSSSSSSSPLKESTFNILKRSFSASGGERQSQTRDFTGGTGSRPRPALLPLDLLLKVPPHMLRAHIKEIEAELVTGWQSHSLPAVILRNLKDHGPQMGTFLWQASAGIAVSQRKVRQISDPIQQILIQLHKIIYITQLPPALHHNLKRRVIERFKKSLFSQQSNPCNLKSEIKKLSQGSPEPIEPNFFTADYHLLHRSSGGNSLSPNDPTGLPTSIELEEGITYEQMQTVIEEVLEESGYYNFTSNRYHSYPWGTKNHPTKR
# T7 sequence (O00444 whole entry): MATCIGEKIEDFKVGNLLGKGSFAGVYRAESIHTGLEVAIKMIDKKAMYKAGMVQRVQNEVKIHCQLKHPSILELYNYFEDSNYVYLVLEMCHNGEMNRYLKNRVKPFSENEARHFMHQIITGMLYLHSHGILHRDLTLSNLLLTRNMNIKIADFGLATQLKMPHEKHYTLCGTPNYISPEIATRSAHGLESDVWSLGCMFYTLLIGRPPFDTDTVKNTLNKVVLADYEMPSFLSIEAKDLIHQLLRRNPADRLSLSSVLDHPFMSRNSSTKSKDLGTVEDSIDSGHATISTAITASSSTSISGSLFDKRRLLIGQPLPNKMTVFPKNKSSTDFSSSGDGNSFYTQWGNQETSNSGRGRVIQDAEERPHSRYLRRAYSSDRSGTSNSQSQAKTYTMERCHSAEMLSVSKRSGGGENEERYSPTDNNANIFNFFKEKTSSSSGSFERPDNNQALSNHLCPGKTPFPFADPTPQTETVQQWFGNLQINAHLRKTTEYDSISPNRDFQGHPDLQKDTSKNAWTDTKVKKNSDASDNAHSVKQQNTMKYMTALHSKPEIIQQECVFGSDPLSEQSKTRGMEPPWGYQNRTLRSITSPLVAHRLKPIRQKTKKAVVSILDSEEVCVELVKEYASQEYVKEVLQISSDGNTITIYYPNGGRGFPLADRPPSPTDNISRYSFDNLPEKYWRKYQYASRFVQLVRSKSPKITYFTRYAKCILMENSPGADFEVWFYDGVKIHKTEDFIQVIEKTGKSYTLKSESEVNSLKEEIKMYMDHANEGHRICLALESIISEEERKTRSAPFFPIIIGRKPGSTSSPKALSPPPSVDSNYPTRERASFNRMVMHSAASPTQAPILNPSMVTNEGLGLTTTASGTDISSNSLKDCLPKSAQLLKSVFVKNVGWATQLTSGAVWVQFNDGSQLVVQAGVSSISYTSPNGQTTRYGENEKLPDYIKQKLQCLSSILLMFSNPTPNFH
# T13 sequence (P53778 whole entry): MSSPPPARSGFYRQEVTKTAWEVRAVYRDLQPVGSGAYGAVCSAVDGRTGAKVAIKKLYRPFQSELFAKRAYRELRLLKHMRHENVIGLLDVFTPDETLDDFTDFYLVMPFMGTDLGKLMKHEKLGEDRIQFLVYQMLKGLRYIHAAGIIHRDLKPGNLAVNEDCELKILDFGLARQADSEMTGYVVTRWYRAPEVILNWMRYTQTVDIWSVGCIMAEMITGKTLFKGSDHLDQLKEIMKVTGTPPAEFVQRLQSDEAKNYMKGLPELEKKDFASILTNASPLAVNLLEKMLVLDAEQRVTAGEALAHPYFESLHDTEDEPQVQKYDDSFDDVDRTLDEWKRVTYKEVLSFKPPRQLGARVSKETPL
# T18 sequence (P30291 whole entry): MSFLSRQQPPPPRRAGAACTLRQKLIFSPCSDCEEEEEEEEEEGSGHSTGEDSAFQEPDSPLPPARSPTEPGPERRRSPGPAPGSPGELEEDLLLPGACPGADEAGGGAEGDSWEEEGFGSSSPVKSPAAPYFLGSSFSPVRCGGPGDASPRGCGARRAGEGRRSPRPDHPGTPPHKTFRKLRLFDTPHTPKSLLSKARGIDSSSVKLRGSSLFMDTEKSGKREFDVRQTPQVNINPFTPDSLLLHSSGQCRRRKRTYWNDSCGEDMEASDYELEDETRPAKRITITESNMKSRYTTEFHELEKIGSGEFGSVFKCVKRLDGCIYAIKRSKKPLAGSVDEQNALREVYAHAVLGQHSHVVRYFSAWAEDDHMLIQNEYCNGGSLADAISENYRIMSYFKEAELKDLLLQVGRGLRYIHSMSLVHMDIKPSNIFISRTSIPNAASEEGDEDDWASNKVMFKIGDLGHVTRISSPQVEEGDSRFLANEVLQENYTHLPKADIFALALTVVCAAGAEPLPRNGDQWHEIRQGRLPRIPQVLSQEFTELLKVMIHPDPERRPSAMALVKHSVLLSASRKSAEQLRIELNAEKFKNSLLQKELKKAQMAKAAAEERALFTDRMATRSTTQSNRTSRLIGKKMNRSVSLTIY
compound,measurement,setting,value
C=CC(=O)N1CCC[C@@H](n2nc(-c3ccc(OCc4cccc(C)n4)c(Cl)c3)c3c(N)ncnc32)C1 [CHMFL-EGFR-26],remaining binding at 1 µM,PCTK2,89%
same,remaining binding at 1 µM,CDC2L2,97%
same,remaining binding at 1 µM,BUB1,76%
same,remaining binding at 1 µM,CDKL1,100%
same,remaining binding at 1 µM,SNRK,100%
same,remaining binding at 1 µM,EPHB6,82%
same,remaining binding at 1 µM,PLK4,99%
same,remaining binding at 1 µM,NEK10,99%
same,remaining binding at 1 µM,PLK1,100%
same,% control,"EGFR(L747-T751del,Sins)",21%
same,remaining binding at 1 µM,KIT(D816V),100%
same,remaining binding at 1 µM,DCAMKL1,88%
same,GI50,BaF3-TEL-EGFR-C797S,2.5 µM
same,remaining binding at 1 µM,EPHB2,100%
same,remaining binding at 1 µM,p38-gamma,100%
same,remaining binding at 1 µM,CSNK1G3,98%
same,remaining binding at 1 µM,LRRK2,100%
same,remaining binding at 1 µM,VPS34,89%
same,"Tumor weight (final, mean)",PC9 tumor xenografts; 25 mg/kg/d oral,0.93 g
same,"Tumor weight (final, mean)",PC9 tumor xenografts; 50 mg/kg/d oral,0.68 g
same,remaining binding at 1 µM,MEK3,98%
same,remaining binding at 1 µM,WEE1,85%
same,remaining binding at 1 µM,CHEK1,100%
same,remaining binding at 1 µM,PIK3CA(M1043I),100%
same,remaining binding at 1 µM,INSRR,100%
same,remaining binding at 1 µM,ACVR2A,89%
same,remaining binding at 1 µM,PCTK3,94%
same,remaining binding at 1 µM,[1],91%
same,remaining binding at 1 µM,MYLK4,100%

# Source: paper PMC5392334, “Discovery and characterization of a novel irreversible EGFR mutants selective and potent kinase inhibitor CHMFL-EGFR-26 with a distinct binding mode” (Oncotarget, 2017)
